Data published in article PMC7344390, “Leptogorgins A–C, Humulane Sesquiterpenoids from the Vietnamese Gorgonian Leptogorgia sp” (Marine Drugs, 2020).

Columns and labels:
[1] = system: 22Rv1 cells (human drug-resistant prostate cancer cells); assay: In vitro MTT-based drug sensitivity assay, 22Rv1 cells; conditions: 72 h treatment, read-out: IC50 (cell viability, MTT)
Method: (§1) The human prostate cancer cells 22Rv1 and human prostate non-cancer cells PNT2 were purchased from ATCC. Cell lines were cultured according to the manufacturer’s instructions in 10% FBS/RPMI media (Invitrogen, Carlsbad, CA, USA) and handled as described in [29].
(§2) The in vitro cytotoxic activities of the isolated substances were evaluated by MTT assays. The assays were performed as described previously. In brief, cells were seeded in 96-well plates (6 × 10^3 cells/well), incubated overnight, and treated with the tested compounds for 72 h. Next, 10 μL/well of MTT reagent was added and the plates were incubated for 2 h. The media were aspirated and the plates were dried. The formed formazan crystals were dissolved in DMSO and the cell viability was measured using an Infinite F200PRO reader (TECAN, Männedorf, Switzerland). Results were calculated by the GraphPad Prism software v. 7.05 (GraphPad Prism software Inc., La Jolla, CA, USA) and are represented as the IC50 of the compounds against the control cells treated with the solvent alone.

[2] = system: PNT2 cells (human prostate non-cancer cells); assay: In vitro MTT-based drug sensitivity assay, PNT2 cells; conditions: 72 h treatment, read-out: IC50 (cell viability, MTT)
Method: as §1, §2

HT-29 = system: HT-29; design: method as in PMID 12881017; conditions: human cancer HT-29 cell line; more active than curcumin; cited from earlier work
CaCO-2 = system: CaCO-2; design: method as in PMID 12881017; conditions: human cancer CaCO-2 cell line; more active than curcumin; cited from earlier work
NCF-7 = system: NCF-7; design: method as in PMID 12881017; conditions: human cancer NCF-7 cell line; more active than curcumin; cited from earlier work

IC50 [1] [µM] | Compound | IC50 [2] [µM] | antitumor activity (HT-29) | antitumor activity (CaCO-2) | antitumor activity (NCF-7)
0.084 | COc1cccc2c1C(=O)c1c(O)c3c(c(O)c1C2=O)C[C@@](O)(C(=O)CO)C[C@@H]3O[C@H]1C[C@H](N)[C@H](O)[C@H](C)O1 [Doxorubicine] | 1.12 |  |  | 
 | C/C1=C\CC(C)(C)/C=C/C(=O)/C(C)=C/CC1 [zurumbone, 2,6,9-humulatriene-8-one] |  | active | active | active
> 100 | CC(=O)OC1C=C(CO)C(=O)C=CC(C)(C)CC=C(C)C1 (stereo not drawn) [Compound 2, 4-oxohumula-2E,5E,9E-trien-7S-acetate,12-ol] | > 100 |  |  | 
31 | CC1=CCC(C)(C)C=CC(=O)C(CO)=CC(O)C1 (stereo not drawn) [Compound 1, 4-oxohumula-2E,5E,9E-trien-7S,12-diol] | 35.8 |  |  | 
